Measured values published in patent publication US7375122B2, “Compounds useful as pesticides” (Dow AgroSciences LLC, priority 2002, dated 2008).

Legend:
Type in all cases: in vivo
[1] = test system: Cat Flea (Cntenocephalides felis); assay: Testing with Cat Flea, treated media infested with eggs; conditions: eggs held five weeks, adult fleas counted
Method: Media is prepared by mixing 1 part dried bovine blood, 4 parts ground dog food pellets, and 95 parts clean sand. Compounds are dissolved in acetone and further diluted in acetone to yield the required range of concentrations. The acetone solutions are applied to measured amounts of media in small dishes. Final concentrations are expressed as micrograms of compound per gram of media. After the acetone has dried, the treated media is dispensed into small glass vials and infested with 5 to 10 cat flea (Cntenocephalides fells) eggs. The vials are loosely capped and held under controlled conditions for five weeks. Activity is assessed based on the average number of adult cat fleas present in the treated vials compared to the average number of adult cat fleas in the media

[2] = test system: Sweetpotato Whitefly, Bemisia tabaci; assay: Testing with Sweetpotato Whitefly, track sprayer application on egg-infested cotton plants; conditions: for LC90: sweetpotato whitefly on cotton plants, track sprayer, assessment at 13 days after application
Method: Greenhouse-grown cotton plants (ca. five weeks old, grown in 7×7 cm pots containing ca. 231 cm^3 of potting soil mixture) were prepared for whitefly infestation by removing all foliage except the first or second pair of fully expanded true leaves. These plants are then moved into the whitefly colony room of the insectary (temperature maintained at 27° C.), where they are surrounded by cotton or velvetleaf plants infested with all life stages of B. tabaci. Initial movement of B. tabaci adults onto the prepared cotton plants is encouraged by gently shaking the foliage of the surrounding infested cotton and velvetleaf foliage using a 1.5-meter long willow branch. The prepared plants are left in place within the whitefly colony, where they are exposed to adult female B. tabaci oviposition for ca. 48 hours.
At the end of the oviposition exposure period, adult whiteflies are dislodged from the prepared plants by passing compressed air just above the leaves while the leaves are gently disturbed by hand for ca. 15 seconds. The prepared plants, which are now infested with eggs of B. tabaci, are removed from the insectary and any remaining adults are removed from the foliage with a hand-held vacuum fitted with a cage to trap insects. Infested plants are then selected at random and arranged into treatment groups of two or three plants each. Leaves of plants to receive different treatments are separated by a distance of at least 5 cm.
Compounds are applied within 24 hours of removing cotton plants from exposure to oviposition within the B. tabaci colony. Immediately after application, plants are moved to a holding room with a temperature of 30° C. and relative humidity of ca. 60%. Compound efficacy was observed by an assessment at 13 days after application. At this evaluation time, whitefly nymphs that have successfully developed to the third and fourth nymphal stadia can be easily seen on the underside of each cotton leaf with the aid of an illuminated magnifying lens (equipped with a circular fluorescent tube). […]

[3] = test system: Cotton Aphid (Aphis gossypll); assay: Testing with Cotton Aphid, track sprayer application on infested cotton plants; conditions: for LC90: cotton aphid on cotton plants, track sprayer approx. 200 L/ha, count of living non-winged aphids
Method: Alcala cotton plants were grown from seed in 7-cm pots under greenhouse conditions until they reached 35 to 40 cm in height; approximately four weeks old with 5 to 6 true leaves. The plants were then stripped of all foliage except for the two uppermost true leaves. Two days prior to application, heavily infested leaf sections from a cotton aphid colony were cut and placed on each untreated leaf surface. Over the two days, all stages of the aphids abandon the excised host material and migrate to the succulent growth, predominantly the lower surface of the leaves. Plants were checked prior to application for even infestation levels. Treatments consisted of 4 replicates (plants) each with 2 leaves per plant.
Formulation of technical compound was in a solvent solution. For the top rate of each compound, 20 milligrams of technical material was dissolved in 2 milliliters (ml) of a 9:1 mixture of acetone:ethanol solvent. Once dissolved, an additional 18-ml of the solvent mix was added to yield a 1 mg/ml spray solution. Additional rates were then prepared by serial dilution.
Application was made by an automated tracksprayer (RC-Insecticide #1, Serial MS-9′-002, MANDEL Scientific Company Ltd.) equipped with a single TX6 SS hollow cone nozzle to simulate an over-the-top application by a boom sprayer. Spray pressure was set at 50 PSI, and the nozzle head was set approximately 40 cm above the leaf surface (depending on the leaf position it ranged from 35-45 cm). Track velocity and all other settings were calibrated to deliver approximately 200 L/ha. After application and drying, the plants were transferred and kept in controlled environment until assessment.
Assessment of compound efficacy is evaluated by counting all living non-winged stage aphids infesting each replicate using a dissecting microscope.

SMILES	control of cat fleas ([1]; 0.1 μg/g rate in media) [%]	control of cat fleas ([1]; 0.01 μg/g rate in media) [%]	LC90 [2]	LC90 [3]	times more Comparative Compound A needed to reach the LC90 level than Compound Three ([2]; sweetpotato whitefly, ratio of LC90 values) [times]	times more Comparative Compound A needed to reach the LC90 level than Compound Three ([3]; cotton aphid, ratio of LC90 values) [times]
CN/C(=C(/C=O)[N+](=O)[O-])N(C)Cc1ccc(Cl)nc1 [Compound One]	100	–	–	–	–	–
O=C/C(=C1/NCCN1Cc1ccc(Cl)nc1)[N+](=O)[O-] [Compound Three]	96	81	less than 2.52 grams per hectare	less than 0.78 grams per hectare	–	–
O=[N+]([O-])/C=C1\NCCN1Cc1ccc(Cl)nc1 [Comparative Compound A]	–	–	6.66 grams per hectare	9.1 grams per hectare	~2.7	~11.7
